Measured values taken from patent publication US8383607B2, “Perifosine and capecitabine as a combined treatment for cancer” (AEterna Zentaris GmbH, priority 2011, dated 2013).
Read-outs that look alike come from different tables or passages of the source.

Experiments:
[1] = cited from earlier work; for time of peak blood level after administration: after capecitabine administration
[2] = tested on: metastatic colorectal cancer; experiment: Phase II randomized placebo-controlled expanded study: perifosine with capecitabine vs capecitabine alone; format: in vivo, human
Protocol: As outlined above, the randomized placebo-controlled study was performed in order to evaluate the effects of perifosine in combination with various cytotoxic agents (i.e., gemcitabine, paclitaxel, docetaxel, doxorubicin, capecitabine, pemetrexed, irinotecan and pegylated liposomal doxorubicin) and to determine if co-administering perifosine and each of these cytotoxic agents results in synergy, and if such synergy overcomes resistance to chemotherapy in cancer cells.
The study was performed on patients having breast cancer, non-small cell lung cancer, colorectal cancer, prostate cancer, ovarian cancer, head and neck cancer or soft tissue sarcoma, who had received at least one prior chemotherapy regimen. The prior regimen must have been different than the single agent administered in this study. Each patient received a single agent chemotherapy regimen which was judged by a physician as likely to be as beneficial to the patient as any other available therapy.
Patients received either 50 mg perifosine or placebo daily in combination with single-agent chemotherapy.
Capecitabine: 825 mg/m^2 twice per day (i.e., 1650 mg/m^2 per day) on days 1-14 every 3 weeks, administered orally (used to treat breast, colorectal, head and neck, prostate, and ovarian cancers);
The time to progression (TTP) was a primary endpoint for the various treatment groups. Overall survival (OS) rates and overall response rates (ORR) of the patients and the proportion of progression-free patients were secondary endpoints. In addition, the safety of the combined treatments was also evaluated.
Progression and response (complete response or partial response) were determined according to RECIST 1.0 criteria.
The Kaplan-Meier method was used to calculate times to progression and overall survival. Median values of the TTP and OS were calculated, as well as the confidence intervals (CI) of the TTP and OS at a 95% confidence level. P-values were calculated for the differences between different treatments.
Safety of treatments was assessed by monitoring adverse events, which were graded according to the NCI CTCAE version 3.0.

[3] = tested on: refractory advanced colorectal cancer; experiment: Phase I clinical study: safety of 50 mg perifosine daily with 1000 mg/m^2 capecitabine twice per day; conditions: first dose perifosine vs perifosine for eleven days
Protocol: A Phase I clinical study was performed for evaluating the safety of 50 mg perifosine daily in combination with 1000 mg/m^2 capecitabine twice per day in patients with refractory advanced colorectal cancer. During a 21 day cycle, perifosine was administered every day, whereas capecitabine was administered orally on days 1-14 of the cycle.
The study was performed on patients having 3rd line or higher metastatic colorectal cancer, with no prior exposure to perifosine, and who had received, or were not candidates for, regimens containing 5-fluorouracil, oxaliplatin, irinotecan, bevacizumab, and cetuximab or panitumumab. The patients had at least one measurable lesion, as well as adequate bone marrow, liver and renal function.
Toxicity was graded according to the NCI CTCAE version 3.0, and dose limiting toxicity was defined as any of the following: […]
a) Grade 3 non-hematological toxicity except alopecia, which is not reversible Grade 2 or less within 96 hours; or
Physical examination (including vital signs, weight and ECOG performance score) was performed prior to initiation of the treatment, and on day 1 (±3 days) of every cycle thereafter. Adverse event evaluations were monitored and reported promptly.

[4] = tested on: Advancing colorectal cancer (ACRC); Metastatic colorectal cancer (MCRC); conditions: cited from earlier work
[5] = tested on: breast cancer, non-small cell lung cancer, colorectal cancer, prostate cancer, ovarian cancer, head and neck cancer or soft tissue sarcoma; experiment: Phase II portion: perifosine or placebo with single-agent chemotherapy regimens; format: in vivo, human; conditions: 50 mg perifosine or placebo daily with single-agent chemotherapy
Protocol: The prior regimen must have been different than the single agent administered in this study. Each patient received a single agent chemotherapy regimen which was judged by a physician as likely to be as beneficial to the patient as any other available therapy. […] The single-agent chemotherapy regimens were as follows: Paclitaxel: 175 mg/m^2 every 3 weeks or 80 mg/m^2 on days 1, 8 and 15 every 4 weeks, by intravenous infusion over 1 to 3 hours (used to treat breast, prostate and lung cancers); Docetaxel: 75 mg/m^2 every 3 weeks or 35 mg/m^2 on days 1, 8 and 15 every 4 weeks, by intravenous infusion over 1 hour (used to treat head and neck, lung, ovarian and prostate cancers); Gemcitabine: 1000 mg/m^2 on days 1 and 8 every 3 weeks, by infusion over 30 minutes (used to treat sarcoma and lung, ovarian, breast and head and neck cancers); Doxorubicin: 60 mg/m^2 every 3 weeks, by infusion over 30 minutes (used to treat sarcoma and prostate, ovarian, and breast cancers); Pegylated liposomal doxorubicin: 40 mg/m^2 every 4 weeks, by infusion over 30 minutes (used to treat sarcoma and ovarian and breast cancers); Capecitabine: 825 mg/m^2 twice per day (i.e., 1650 mg/m^2 per day) on days 1-14 every 3 weeks, administered orally (used to treat breast, colorectal, head and neck, prostate, and ovarian cancers); Pemetrexed: 500 mg/m^2 every 3 weeks, by intravenous infusion over 10 minutes (used to treat lung and colorectal cancers); and Irinotecan: 100 mg/m^2 on days 1, 8 and 15 every 4 weeks, by intravenous infusion over 90 minutes (used to treat sarcoma and colorectal and lung cancers). The time to progression (TTP) was a primary endpoint for the various treatment groups. Overall survival (OS) rates and overall response rates (ORR) of the patients and the proportion of progression-free patients were secondary endpoints. In addition, the safety of the combined treatments was also evaluated. […] The Kaplan-Meier method was used to calculate times to progression and overall survival. Median values of the TTP and OS were calculated, as well as the confidence intervals (CI) of the TTP and OS at a 95% confidence level. P-values were calculated for the differences between different treatments.

[6] = 5-FU-refractory metastatic colorectal cancer patients, listed as capecitabine alone
[7] = 5-FU-refractory metastatic colorectal cancer patients, listed as placebo+capecitabine
[8] = after 12 weeks, 5-FU refractory evaluable patients (14 combination, 11 capecitabine alone)
[9] = after 12 weeks, evaluable metastatic colorectal cancer patients (20 combination, 15 capecitabine alone)
[10] = all metastatic colorectal cancer patients, 50 mg perifosine or placebo daily + capecitabine 1650 mg/m^2 per day days 1-14 every 21 days
[11] = 2x daily 1250 mg/m2 (total 2500 mg/m2), MCRC, Asia-Pac J Clin Oncol. 2011, 82-87
[12] = 2x daily 1000-1250 mg/m2, ACRC, Acta Oncologica, 2005, 44: 236-239
[13] = 7 patients 2x daily 1250 mg/m2, after toxicity dose diluted to 1000 mg/m2, ACRC, Anticancer Res. 26: 1669-1672 (2006)

For `O=c1[nH]cc(F)c(=O)[nH]1` [5-fluorouracil], the “time of peak blood level after administration” value [1] is listed as 2 h.

In the case of `CCCCCOC(=O)Nc1nc(=O)n([C@@H]2O[C@H](C)[C@@H](O)[C@H]2O)cc1F` [capecitabine], the “Median OS” value ([2]; 5-FU refractory) is reported as 6.6 mo. for 5-FU, the “Median TTP” value ([2]; 5-FU refractory) is reported as 10 weeks for 5-FU and the “median overall survival (OS)” value [2, 6] is reported as 6.8 months. For the same compound, the “median time to progression (TTP)” value [2, 6] was 10 weeks, the “median overall survival (OS)” value [2, 7] was 6.6 months and the “median time to progression (TTP)” value [2, 7] was 11 weeks. For the same compound, the “Grade 3 and 4 adverse events: anemia” value ([2]; NCI CTCAE version 3.0) was 0%, the “Grade 3 and 4 adverse events: hand/foot syndrome” value ([2]; NCI CTCAE version 3.0) was 0% and the “patients who achieved stable disease (progression-free for 3 months or greater)” value [2, 8] was 3. For the same compound, the “patients with partial response” value [2, 8] was “none”, the “proportion of patients who achieved stable disease” value [2, 8] was 27% and the “patients who achieved stable disease (progression-free for 3 months or greater)” value [2, 9] was 6. The “patients with partial response” value [2, 9] was 1, the “proportion of patients who achieved stable disease” value [2, 9] was 40% and the “patients with complete response” value ([2]; after 12 weeks, evaluable metastatic colorectal cancer patients (20 combination, 15 capecitabine alone), RECIST 1.0) was “none”. The “median overall survival (OS)” value [2, 10] was 10.9 months, the “median time to progression (TTP)” value [2, 10] was 11 weeks and the “Median OS” value ([2]; all patients) was “refractory; 10.9 mo”. The “Median TTP” value ([2]; all patients) was “refractory; 11 weeks”, the “patients who discontinued treatment due to an adverse event” value ([2]; in vivo) was 2 and the “PK parameters for capecitabine or its metabolites, Cycle 1 Day 1 vs Cycle 1 Day 11” value [3] was “no statistically significant differences”. The “Median OS” value [4, 11] was 5.3 months, the “Median TTP” value [4, 11] was 2.3 months and the “Median OS” value [4, 12] was 6.1 mos. The “Median TTP” value [4, 12] was 2.8 mos, the “Median OS” value [4, 13] was 5.2 mos and the “Median TTP” value [4, 13] was 4 mos. The “time of peak blood level after administration” value [1] was “about 1.5 hours”, the “effect of food on capecitabine absorption” value ([1]; in vivo) was “reduces both the rate and extent” and the elimination half-life ([1]; in vivo) was “about ¾”.

In the case of `CC(=O)O[C@@]12CO[C@@H]1C[C@H](O)[C@@]1(C)C(=O)[C@H](O)C3=C(C)[C@@H](OC(=O)[C@H](O)[C@@H](NC(=O)OC(C)(C)C)c4ccccc4)C[C@@](O)([C@@H](OC(=O)c4ccccc4)[C@H]21)C3(C)C` [docetaxel], the “beneficial effect of perifosine (improvement in combination with perifosine) in subjects receiving the chemotherapeutic agent” value (“beneficial effect of perifosine” below) [5] is reported as “not to occur”.

In the case of `COc1cccc2c1C(=O)c1c(O)c3c(c(O)c1C2=O)C[C@@](O)(C(=O)CO)C[C@@H]3O[C@H]1C[C@H](N)[C@H](O)[C@H](C)O1` [doxorubicin], the “beneficial effect of perifosine” value [5] is reported as “not to occur”.

In the case of `Nc1ccn([C@@H]2O[C@H](CO)[C@@H](O)C2(F)F)c(=O)n1` [gemcitabine], the “beneficial effect of perifosine” value [5] is reported as “not to occur”.

For `CCc1c2c(nc3ccc(OC(=O)N4CCC(N5CCCCC5)CC4)cc13)-c1cc3c(c(=O)n1C2)COC(=O)[C@]3(O)CC` [irinotecan], the “beneficial effect of perifosine” value [5] was “not to occur”.

For `CC(=O)O[C@H]1C(=O)[C@@]2(C)[C@H]([C@H](OC(=O)c3ccccc3)[C@]3(O)C[C@H](OC(=O)[C@H](O)[C@@H](NC(=O)c4ccccc4)c4ccccc4)C(C)=C1C3(C)C)[C@]1(OC(C)=O)CO[C@@H]1C[C@@H]2O` [paclitaxel], the “beneficial effect of perifosine” value [5] was “not to occur”.

With `Nc1nc2[nH]cc(CCc3ccc(C(=O)N[C@@H](CCC(=O)O)C(=O)O)cc3)c2c(=O)[nH]1` [pemetrexed] the “beneficial effect of perifosine” value [5] was “not to occur”.
